# Like-named read-outs stand apart in the source and are kept apart here.
# Columns and labels:
# ERK = assay: phospho-ERK immunocytochemistry in cultured hippocampal neurons; type: cell-based, rat
# Description: Neurons from 18 day rat embryos were dissociated using trypsin and plated on coverslips coated with poly-L-ysine in minimal essential medium (MEM) with 10% NU serum (BD Biosciences, Le Pont de Claix, France) at densities of 30,000 cells/cm^2 as described (Brewer, G. J. (1995) J. Neurosci. Res. 42, 674-683). On days 7 and 11 of culture incubation, half of the medium was changed to MEM with 2% B27 supplement (Invitrogen).
# Cells were transfected with cDNA for EGFP fusion proteins (LipofectAMINE 2000; Invitrogen) or by pseudoviral infection using a Sindbis expression system (Invitrogen). Neurons were incubated with cDNA and LipofectAMINE for 2 hr, rinsed, and incubated with culture media (MEM with 2% of B27 supplement) 17 hr prior to the experiment. For viral delivery, neuronal cultures were incubated 30 min with pseudoviral constructs diluted 200-500× in culture media. Cultures were rinsed and incubated in media for 15 hr. 0.1% to 1.5% of neurons were fluorescent after expressing LipofectAMINE-delivered constructs while Sindbis infection yielded 1%-10% transfection efficiency. Most of the experiments were performed on 12-14 days in vitro (div) cultures unless otherwise indicated.
# Three hours before stimulation, TTX (1 μM), CNQX (40 μM), APV (100 μM), and nimodipine (5 μM) were added to neurons. For stimulation, coverslips with neurons were transferred into the following solutions.
# (1) 100 μM NMDA, 10 μM glycine, 1 μM TTX, 40 μM CNQX, 5 μM nimodipine dissolved in culture media and incubated for 3 min. […]
# After stimulation, neurons were fixed with 4% formaldehyde and labeled with rabbit anti-phospho-p44/42 ERK antibody (Cell Signaling) and with mouse anti-MAP2 antibody (Sternberger Monoclonals). Cy3-conjugated goat anti-rabbit IgG and Cy5-conjugated goat antimouse IgG (Jackson Immunoresearch Laboratories, West Grove, Pa.) were secondary antibodies. NMDA and all antagonists were from Tocris Neuramin. BDNF was from Calbiochem. Images were acquired with an Olympus Fluoview-500 confocal microscope (40×; 1.0 NA) and quantified using Olympus Fluoview software. In each experiment, the pERK fluorescence of the cell soma was measured for 25 neurons taken from consecutive fields. Phospho-ERK fluorescence data were normalized to the values obtained in nontransfected cells after NMDA stimulation. The background fluorescence (mean fluorescence of nonstimulated neurons) was subtracted prior to normalization.
# NMDA receptor = assay: whole-cell recordings of NMDAR-mediated currents in cultured hippocampal neurons; type: cell-based, rat
# NR2B = target: T1, NR2B (Rattus norvegicus, UniProt P35439+Q00960); conditions: 3 μM; heterologous expression systems; cited from earlier work
# T1 construct: host or cells: heterologous expression systems (not specified)
# NR2A = target: T2, NR2A (Rattus norvegicus, UniProt Q00959); conditions: 3 μM; heterologous expression systems; cited from earlier work
# T2 construct: host or cells: heterologous expression systems (not specified)
# NMDA receptors = conditions: cited from earlier work
# [1] = test system: CREB transcription factor; assay: phosphorylation of CREB in cultured hippocampal neurons; type: cell-based, rat; conditions: control experiments
# SynGAP = assay: phosphorylation of SynGAP in cultured hippocampal neurons; type: cell-based, rat; conditions: control experiments
# full-length NR2B = target: T3, full-length NR2B (Rattus norvegicus, UniProt Q00960); assay: in vitro binding of in vitro translated HA-tagged RasGRF1 fragments to full-length NR2B (co-immunoprecipitation); conditions: epitope-tagged RasGRF1 fragments
# T3 construct: In vitro translated full-length NR2B and HA-tagged RasGRF1 fragments were co-immunoprecipitated with anti-HA antibody; made in house; host or cells: cell-free in vitro translation (35S-labelled)
# Text: For in vitro translation, fragments of rat NR2B and rat RasGRF1 were made by PCR with 5′-primers containing AU1- and HA-tag encoding sequences; amplified sequences were subcloned into pcDNA3.1. For 293T transfection, the following cDNAs were used: mouse RasGRF1 in pcDNA3, GFP-rat NR2B, GFP rat NR2A in pcDNA1.1, and rat NR1 in pEGFP-C1 (Clontech). EGFP fusion constructs were made by subcloning cDNA fragments encoding different portions of NR2B and RasGRF1 into pEGFP-C1 (Clontech). EGFP fusion constructs were transferred from pEGFP into pSinRep5 and used for preparation of the Sindbis pseudovirus gene transfer system according to the manufacturer's protocol (Invitrogen, Carlsbad, Calif.).
# For in vitro binding experiments, equimolar amounts of in vitro translated ^35S-labeled proteins (calculated from radioactivity of the excised protein band and cysteine content in the specific fragment) were incubated with a 3-fold molar excess of translated RasGRF1 for 30 min at 30° C., diluted with RIPA buffer, and immunoprecipitated with anti-HA-agarose (Santa Cruz). In competition experiments, RasGRF1 and NR2B were immunoprecipitated for 2 hr at 4° C. from solubilized rat brain microsomes in the presence of 10 μM NusA, 10 μM NusA-RasGRF1-BD, or 5 μM NusA-NR2B-BD.
# T3 sequence (Q00960 27-1482 E1256K/V1430S/T1431A): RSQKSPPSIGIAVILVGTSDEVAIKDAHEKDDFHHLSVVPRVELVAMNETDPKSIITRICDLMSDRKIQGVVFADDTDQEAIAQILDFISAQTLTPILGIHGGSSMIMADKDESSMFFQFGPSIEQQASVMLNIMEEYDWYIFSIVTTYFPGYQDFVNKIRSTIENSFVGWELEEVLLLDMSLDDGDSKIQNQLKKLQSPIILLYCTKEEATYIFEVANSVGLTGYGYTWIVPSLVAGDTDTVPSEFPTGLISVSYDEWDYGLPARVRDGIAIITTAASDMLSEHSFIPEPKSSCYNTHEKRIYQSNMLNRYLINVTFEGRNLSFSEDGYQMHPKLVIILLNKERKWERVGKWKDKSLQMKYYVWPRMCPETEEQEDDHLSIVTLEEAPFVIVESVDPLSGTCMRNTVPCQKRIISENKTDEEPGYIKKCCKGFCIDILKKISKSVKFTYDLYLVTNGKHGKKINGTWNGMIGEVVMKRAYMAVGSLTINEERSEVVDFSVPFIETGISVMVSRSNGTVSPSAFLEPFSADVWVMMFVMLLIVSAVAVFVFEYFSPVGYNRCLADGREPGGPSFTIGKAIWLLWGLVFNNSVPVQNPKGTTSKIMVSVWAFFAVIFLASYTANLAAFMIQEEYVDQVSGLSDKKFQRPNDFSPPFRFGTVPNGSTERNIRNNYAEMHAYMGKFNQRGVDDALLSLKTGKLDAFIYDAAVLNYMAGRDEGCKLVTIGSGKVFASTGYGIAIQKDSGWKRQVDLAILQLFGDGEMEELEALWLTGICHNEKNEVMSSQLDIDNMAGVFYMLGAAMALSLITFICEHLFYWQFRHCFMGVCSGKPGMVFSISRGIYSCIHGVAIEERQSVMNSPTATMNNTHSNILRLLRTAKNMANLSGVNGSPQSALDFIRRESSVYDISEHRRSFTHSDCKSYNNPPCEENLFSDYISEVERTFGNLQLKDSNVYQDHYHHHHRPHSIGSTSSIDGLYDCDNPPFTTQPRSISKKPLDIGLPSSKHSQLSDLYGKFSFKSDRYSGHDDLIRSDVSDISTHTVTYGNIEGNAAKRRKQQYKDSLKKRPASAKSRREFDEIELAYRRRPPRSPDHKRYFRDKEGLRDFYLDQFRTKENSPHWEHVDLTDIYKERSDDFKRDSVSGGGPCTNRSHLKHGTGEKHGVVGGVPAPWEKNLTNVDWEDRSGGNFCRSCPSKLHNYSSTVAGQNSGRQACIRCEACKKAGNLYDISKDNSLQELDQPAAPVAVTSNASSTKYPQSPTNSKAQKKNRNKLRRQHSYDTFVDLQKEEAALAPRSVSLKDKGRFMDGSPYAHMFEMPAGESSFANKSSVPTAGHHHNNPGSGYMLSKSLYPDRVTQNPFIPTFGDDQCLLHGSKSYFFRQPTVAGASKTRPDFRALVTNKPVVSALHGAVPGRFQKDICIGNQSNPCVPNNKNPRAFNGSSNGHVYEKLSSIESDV
# T1 sequence (Q00960 27-1482, other chains not shown): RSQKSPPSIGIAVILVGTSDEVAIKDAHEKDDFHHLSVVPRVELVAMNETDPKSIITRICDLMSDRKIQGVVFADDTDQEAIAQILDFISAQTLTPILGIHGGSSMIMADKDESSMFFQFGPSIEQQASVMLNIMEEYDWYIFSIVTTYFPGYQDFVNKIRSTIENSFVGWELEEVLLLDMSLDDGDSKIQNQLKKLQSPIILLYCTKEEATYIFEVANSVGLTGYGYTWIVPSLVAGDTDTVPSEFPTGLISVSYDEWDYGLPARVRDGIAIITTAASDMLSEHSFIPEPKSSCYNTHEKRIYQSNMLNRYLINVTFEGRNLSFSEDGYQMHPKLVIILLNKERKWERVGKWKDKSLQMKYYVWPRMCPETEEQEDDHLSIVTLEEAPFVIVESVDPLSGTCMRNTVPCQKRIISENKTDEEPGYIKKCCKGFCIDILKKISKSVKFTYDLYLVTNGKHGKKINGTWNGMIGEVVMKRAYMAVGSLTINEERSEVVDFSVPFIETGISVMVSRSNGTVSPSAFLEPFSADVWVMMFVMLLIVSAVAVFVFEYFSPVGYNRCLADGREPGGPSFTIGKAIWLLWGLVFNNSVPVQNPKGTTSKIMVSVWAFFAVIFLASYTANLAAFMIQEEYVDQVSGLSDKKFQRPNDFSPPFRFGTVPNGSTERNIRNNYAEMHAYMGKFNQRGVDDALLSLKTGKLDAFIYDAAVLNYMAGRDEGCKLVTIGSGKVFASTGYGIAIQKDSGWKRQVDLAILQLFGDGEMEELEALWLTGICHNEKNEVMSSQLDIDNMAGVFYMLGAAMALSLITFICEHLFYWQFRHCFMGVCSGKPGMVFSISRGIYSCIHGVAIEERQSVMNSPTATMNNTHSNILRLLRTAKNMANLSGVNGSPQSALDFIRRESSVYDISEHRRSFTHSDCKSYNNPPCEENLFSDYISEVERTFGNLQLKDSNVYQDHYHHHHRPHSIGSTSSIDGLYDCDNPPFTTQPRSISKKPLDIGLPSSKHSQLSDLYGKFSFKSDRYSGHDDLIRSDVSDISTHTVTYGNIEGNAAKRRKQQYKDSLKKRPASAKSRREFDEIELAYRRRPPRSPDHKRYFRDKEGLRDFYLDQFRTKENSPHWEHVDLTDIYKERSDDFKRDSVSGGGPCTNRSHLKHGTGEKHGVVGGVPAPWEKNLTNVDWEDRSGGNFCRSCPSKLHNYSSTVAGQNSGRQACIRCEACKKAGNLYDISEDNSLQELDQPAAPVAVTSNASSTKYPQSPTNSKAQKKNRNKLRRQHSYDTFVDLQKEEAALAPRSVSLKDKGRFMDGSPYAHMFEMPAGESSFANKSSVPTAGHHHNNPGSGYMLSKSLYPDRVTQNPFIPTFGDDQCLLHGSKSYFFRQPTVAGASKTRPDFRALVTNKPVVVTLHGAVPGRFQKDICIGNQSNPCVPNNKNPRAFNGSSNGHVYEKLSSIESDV
# T2 sequence (Q00959 23-1464): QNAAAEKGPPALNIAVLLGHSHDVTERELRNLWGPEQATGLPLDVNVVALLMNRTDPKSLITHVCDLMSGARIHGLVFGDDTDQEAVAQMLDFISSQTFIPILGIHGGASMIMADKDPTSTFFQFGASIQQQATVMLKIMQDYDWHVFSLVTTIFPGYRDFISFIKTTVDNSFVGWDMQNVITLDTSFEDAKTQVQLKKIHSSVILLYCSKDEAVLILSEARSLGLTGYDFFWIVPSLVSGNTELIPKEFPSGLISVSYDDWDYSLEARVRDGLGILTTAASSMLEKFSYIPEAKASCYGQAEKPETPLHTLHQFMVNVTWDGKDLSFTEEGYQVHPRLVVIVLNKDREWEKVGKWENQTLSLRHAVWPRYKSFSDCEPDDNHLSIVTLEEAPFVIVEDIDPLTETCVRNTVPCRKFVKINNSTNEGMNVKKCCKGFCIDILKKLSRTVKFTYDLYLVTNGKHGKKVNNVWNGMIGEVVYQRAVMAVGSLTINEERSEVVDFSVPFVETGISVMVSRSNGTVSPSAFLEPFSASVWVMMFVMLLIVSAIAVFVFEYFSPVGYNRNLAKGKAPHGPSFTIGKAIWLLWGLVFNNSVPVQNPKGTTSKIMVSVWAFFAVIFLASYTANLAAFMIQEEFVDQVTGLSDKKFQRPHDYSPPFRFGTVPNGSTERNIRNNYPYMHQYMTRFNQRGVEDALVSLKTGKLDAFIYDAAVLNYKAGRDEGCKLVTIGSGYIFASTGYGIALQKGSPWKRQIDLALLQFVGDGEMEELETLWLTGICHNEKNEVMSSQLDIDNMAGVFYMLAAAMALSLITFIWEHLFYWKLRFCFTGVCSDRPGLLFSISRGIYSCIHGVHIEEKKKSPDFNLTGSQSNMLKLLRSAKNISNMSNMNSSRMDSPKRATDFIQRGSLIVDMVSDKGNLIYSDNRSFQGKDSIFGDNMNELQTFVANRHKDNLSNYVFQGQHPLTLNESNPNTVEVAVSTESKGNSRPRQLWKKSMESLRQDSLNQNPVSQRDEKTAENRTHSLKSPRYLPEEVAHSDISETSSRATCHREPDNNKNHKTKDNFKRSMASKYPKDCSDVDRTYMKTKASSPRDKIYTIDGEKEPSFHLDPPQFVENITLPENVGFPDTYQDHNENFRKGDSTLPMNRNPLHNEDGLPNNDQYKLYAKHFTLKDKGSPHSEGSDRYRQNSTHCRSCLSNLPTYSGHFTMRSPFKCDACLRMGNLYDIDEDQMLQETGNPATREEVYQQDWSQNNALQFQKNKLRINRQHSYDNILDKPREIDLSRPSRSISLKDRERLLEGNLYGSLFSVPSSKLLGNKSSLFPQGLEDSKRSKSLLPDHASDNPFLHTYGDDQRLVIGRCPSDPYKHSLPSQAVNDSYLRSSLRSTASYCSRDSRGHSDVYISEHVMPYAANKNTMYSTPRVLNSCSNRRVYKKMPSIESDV
molecule,measurement,setting,value
CC(C(O)c1ccc(O)cc1)N1CCC(Cc2ccccc2)CC1 (stereo not drawn) [ifenprodil],inhibition at 3 µM,"ERK; Rattus norvegicus, Hippocampal neuron, 3 μM, hippocampal neurons 8 div, read-out: inhibition of NMDAR activated ERK",70%
same,degree of ifenprodil-sensitive ERK activation with days in culture,ERK; during neuron maturation,did not change significantly
same,decrease of the portion of the ifenprodil-sensitive NMDA current with days in culture,NMDA receptor,~25%
same,frequency of spontaneous NMDAR EPSCs,NMDA receptor,significantly reduced
same,suppression of NMDAR current,NMDA receptor,60%
same,inhibition of NR2B-mediated current,NR2B,up to 80%
same,effect on NR2A-mediated current,NR2A,has no effect
same,inhibition of NMDA-mediated current,NMDA receptors; 3-week-old cultures,20%-30
same,inhibition of NMDA-mediated current,NMDA receptors; young neuronal cultures,~70%
COc1ccc(S(=O)(=O)N(CCO)c2ccccc2CN(C)C/C=C/c2ccc(Cl)cc2)cc1 [KN-93],NMDA-dependent ERK activation,ERK; 5 μM in the incubation media,had no effect
same,bicuculline-induced ERK activation,"ERK; cultured hippocampal neurons, 10 μM bicuculline",altered neither
same,NMDA-induced (NMDAR-dependent) ERK activation,"ERK; cultured hippocampal neurons, 100 μM NMDA",altered neither
same,phosphorylation of CREB,[1],effectively suppressed
same,phosphorylation of SynGAP,SynGAP,effectively suppressed
"RasGRF1 amino acids 1-720: N-terminal portion of RasGRF1, which contains multiple functional domains (protein, UniProt Q13972 1-720, looked up, fragment) MQKGIRLNDGHVASLGLLARKDGTRKGYLSKRSSDNTKWQTKWFALLQNLLFYFESDSSSRPSGLYLLEGCVCDRAPSPKPALSAKEPLEKQHYFTVNFSHENQKALELRTEDAKDCDEWVAAIAHASYRTLATEHEALMQKYLHLLQIVETEKTVAKQLRQQIEDGEIEIERLKAEITSLLKDNERIQSTQTVAPNDEDSDIKKIKKVQSFLRGWLCRRKWKTIIQDYIRSPHADSMRKRNQVVFSMLEAEAEYVQQLHILVNNFLRPLRMAASSKKPPITHDDVSSIFLNSETIMFLHQIFYQGLKARISSWPTLVLADLFDILLPMLNIYQEFVRNHQYSLQILAHCKQNRDFDKLLKHYEAKPDCEERTLETFLTYPMFQIPRYILTLHELLAHTPHEHVERNSLDYAKSKLEELSRIMHDEVSETENIRKNLAIERMIIEGCEILLDTSQTFVRQGSLIQVPMSEKGKITRGRLGSLSLKKEGERQCFLFSKHLIICTRGSGGKLHLTKNGVISLIDCTLLEEPESTEEEAKGSGQDIDHLDFKIGVEPKDSPPFTVILVASSRQEKAAWTSDISQCVDNIRCNGLMMNAFEENSKVTVPQMIKRTREGTREAEMSRSDASLYCDDVDIRFSKTMNSCKVLQIRYASVERLLERLTDLRFLSIDFLNTFLHSYRVFTTAIVVLDKLITIYKKPISAIPARWLRSLELLFASGQNN",binding to NR2B in vitro,full-length NR2B,did not bind
"RasGRF1 amino acids 714-1244: C-terminal prey-containing sequence of RasGRF1 (protein, UniProt Q13972 714-1244, looked up, fragment) FASGQNNKLLYGEPPKSPRATRKFSSPPPLSITKTSSPSRRRKLSLNIPIITGGKALDLAALSCNSNGYTSMYSAMSPFSKATLDTSKLYVSSSFTNKIPDEGDTTPEKPEDPSALSKQSSEVSMREESDIDQNQSDDGDTETSPTKSPTTPKSVKNKNSSEFPLFSYNNGVVMTSCRELDNNRSALSAASAFAIATAGANEGTPNKEKYRRMSLASAGFPPDQRNGDKEFVIRRAATNRVLNVLRHWVSKHSQDFETNDELKCKVIGFLEEVMHDPELLTQERKAAANIIRTLTQEDPGDNQITLEEITQMAEGVKAEPFENHSALEIAEQLTLLDHLVFKKIPYEEFFGQGWMKLEKNERTPYIMKTTKHFNDISNLIASEIIRNEDINARVSAIEKWVAVADICRCLHNYNAVLEITSSMNRSAIFRLKKTWLKVSKQTKALIDKLQKLVSSEGRFKNLREALKNCDPPCVPYLGMYLTDLAFIEEGTPNYTEDGLVNFSKMRMISHIIREIRQFQQTAYKIEHQAKV",binding to NR2B in vitro,full-length NR2B,bound
"RasGRF1 amino acids 714-841: shorter peptide of the RasGRF1-specific sequence (protein, UniProt Q13972 714-841, looked up, fragment) FASGQNNKLLYGEPPKSPRATRKFSSPPPLSITKTSSPSRRRKLSLNIPIITGGKALDLAALSCNSNGYTSMYSAMSPFSKATLDTSKLYVSSSFTNKIPDEGDTTPEKPEDPSALSKQSSEVSMREE",binding to NR2B in vitro,full-length NR2B,did not bind
"RasGRF1 amino acids 835-913: shorter peptide of the RasGRF1-specific sequence (protein, UniProt Q13972 835-913, looked up, fragment) EVSMREESDIDQNQSDDGDTETSPTKSPTTPKSVKNKNSSEFPLFSYNNGVVMTSCRELDNNRSALSAASAFAIATAGA",binding to NR2B in vitro,full-length NR2B,did not bind

# — patent US7425614B2, “Neuroprotective therapeutics preventing ERK/MAPK activation through the NMDA receptor” (Children's Medical Center Corporation, priority 2003, dated 2008)
